Assay results published in patent EP0222274A1, “2-Hydroxybenzamides” (NIHON TOKUSHU NOYAKU SEIZO K.K., priority 1985, dated 1987).

Key:
[1] = tested on: "Komatsuna" (einer Varietät chinesischen Kohls); test: Phytotoxicity to "Komatsuna" in the clubroot control test; type: in vivo, "Komatsuna" (Varietät: Misugi)
Source text: (§1) Test der Bekämpfung von Kohlhernie bei "Komatsuna" (einer Varietät chinesischen Kohls):
(§2) Aktive Verbindung: 1,5 Teile; Isopropylhydrogenphosphat (PAP): 0,5 Teile; Ton-Pulver: 98 Teile.
(§3) Die oben angegebenen Stoffe wurden pulverisiert und vermischt, wodurch ein Stäubemittel erhalten wurde.
(§4) Mit Plasmodiophora brassicae infizierte Erde wurde in unglasierte Töpfe mit einem Durchmesser von 21 cm gefüllt, und ein Stäubemittel einer Verbindung gemäß der vorliegenden Erfindung, das wie oben angegeben hergestellt worden war, wurde in einer vorher festgelegten Konzentration gleichmäßig mit der Erde vermischt.
(§5) Samen von "Komatsuna" (Varietät: Misugi) wurden in einer Menge von 20 Körnern pro Topf eingesät. Die Töpfe wurden 4 Wochen in einem auf 20°C gehaltenen klimatisierten Gewächshaus gehalten. Dann wurden die Pflanzen ausgegraben, und der Krankheitszustand wurde nach dem folgenden Maßstab bewertet. Der Erkrankungs-Index und das Verhältnis der erkrankten Pflanzen wurden berechnet.

Rhizopus oryzae = test: Control of damping-off of rice seedlings, soil drench; type: in vivo; conditions: 500 ml per box, rice (Kusabue)
Source text: Test der Bekämpfung des Umfallens von Reis-Setzlingen (Wurzelbrand der Keimpflanzen)
Präparat einer Test-Verbindung:
(§6) Aktive Verbindung: 50 Gew.-Teile; Träger: 45 Gew.-Teile einer Mischung aus Diatomeenerde und Kaolin (1:5), Emulgator: 5 Gew.Teile Polyoxyethylenalkylphenylether.
(§7) Die aktive Verbindung, der Träger und der Emulgator in den oben angegebenen Mengen wurden pulverisiert und miteinander zu einem benetzbaren Pulver vermischt. Eine vorher festgegegte Menge des benetzbaren Pulvers wurde mit Wasser vermischt.
Sterilisierte Erde wurde mit in Reiskleie kultiviertem Rhizopus oryzae inokuliert. Die Erde wurde in Anzuchtkästen für Sämlinge (60 cm x 40 cm x 3 cm) eingefüllt. Die wie oben angegeben präparierte aktive Verbindung wurde in vorher festgelegter Konzentration in einer Menge von 500 ml pro Kasten gleichmäßig in die Erde hineingegossen. Samen von Reis (Varietät: Kusabue) wurden in einer Menge von 200 g (Trockengewicht) pro Kasten ausgesät und drei Tage in einer Anzucht-Vorrichtung bei 32°C kultiviert. Danach wurden die Anzucht-Kästen in ein Glashaus überführt und in üblicher Weise gehalten. 20 Tage später wurden 200 Setzlinge aus der Mitte jedes Anzuchtkastens herausgezogen, und der Grad der Verletzung wurde nach dem folgenden Maßstab bewertet. Der Bekämpfungs-Index und das Verhältnis der gesunden Setzlinge wurden berechnet.
Grad der Verletzung: 0: n₀ = gesunde Setzlinge; 1: n₁ = Setzlinge, bei denen das Wachstum der Haarwurzeln in geringem Maße schlecht war; 2: n₂ = Setzlinge, bei denen eine keulenartige Verformung teilweise an den Pfahlwurzeln beobachtet wurde; 3: n₃ = Setzlinge, bei denen das Wachstum der Pfahlwurzeln außerordentlich schlecht war und viele keulenartige Verformungen auftraten; 4: n₄ = Setzlinge, die keulenartig geworden waren, mit gehemmtem Wachstum der Pfahlwurzeln und Deckwurzeln.

Rosellinia necatrix = test: Control of root mould (Wurzelschimmel) in apple, cut twigs in infected soil; type: in vivo; conditions: Konzentration des Wirkstoffs 0,1 %; 5 ml per 100 ml soil; apple twigs (Star King), 3 weeks at 25°C; score 0 (kein Befall) to 5
Source text: as §6, §7
Test der Bekämpfung des Wurzelschimmels beim Apfel
In Reiskleie kultivierter Rosellinia necatrix wurde in sterilisierte Erde inokuliert, um eine infizierte Erde herzustellen. Eine wie in Beispiel 5 präparierte aktive Verbindung in vorher festgelegter Konzentration wurde in einer Menge von 5 ml pro 100 ml Erde gleichmäßig in die Erde hineingegossen und ausreichend mit dieser ver mischt. Abgeschnittene Apfelzweige (Varietät: Star King) wurden senkrecht in der Erde eingebettet, so daß die Hälfte jedes Zweiges in der Erde steckte. Die Zweige wurden dann unter Gewächshaus-Bedingungen bei 25°C gehalten. Drei Wochen später wurde der Grad des Befalls der Zweige durch den oben bezeichneten Pilz beurteilt und nach dem Grad der Verletzung anhand der folgenden […] bewertet:
0: Kein Befall; 1: geringfügiger Befall wurde beobachtet; 2: Befall wurde beobachtet auf 3 % bis weniger als 10 % der Oberfläche der Zweige; 3: Befall wurde beobachtet auf 10 % bis weniger als 30 % der Oberfläche der Zweige; 4: Befall wurde beobachtet auf 30 % bis weniger als 50 % der Oberfläche der Zweige; 5: Befall wurde beobachtet auf wenigstens 50 % der Oberfläche der Zweige.

Plasmodiophora brassicae = test: Control of clubroot (Kohlhernie) in "Komatsuna" grown in infected soil, dust mixed into soil; type: in vivo; conditions: 4 weeks at 20°C
Source text: as §1
Präparat einer aktiven Verbindung:
as §2, §3, §4, §5
3: L₁ = Zahl der Pflanzen, deren Wurzeln durch das Auftreten der Kohlhernie (Kropfkrankheit) sehr stark vergrößert worden waren; 2: L₂ - Zahl der Pflanzen, bei denen Kohlhernie auftrat, jedoch auf die Pfahlwurzeln beschränkt war; 1: L₃ = Zahl der Pflanzen, bei denen geringsfügiges Auftreten von Kohlhernie beobachtet wurde; 0: L₄ = Zahl der gesunden Pflanzen. [formula]

[2] = Konzentration des Wirkstoffs 0,1 %
[3] = Konzentration des Wirkstoffs 0,15 %

Row | Structure (SMILES) | Bekämpfungs-Index (Rhizopus oryzae; [2]) [%] | Grad der Verletzung (Rhizopus oryzae; [2]) | Verhältnis der gesunden Setzlinge (Rhizopus oryzae; [2]) | Grad der der Verletzung (Rosellinia necatrix) | Erkrankungs-Index (Plasmodiophora brassicae; Menge des Wirkstoffs 5 kg/ha) | Verhältnis der erkrankten Pflanzen (Plasmodiophora brassicae; Menge des Wirkstoffs 5 kg/ha) [%] | Phytotoxizität ([1]; Menge des Wirkstoffs 5 kg/ha) | further results
1 | CCOC(NC(=O)c1ccccc1O)C(Cl)(Cl)Cl (centres unmarked) [A-1, reference compound] | 43 | 28,3% | 35,5% | 3 |  |  |  | Phytotoxizität ([1]; Menge des Wirkstoffs 20 kg/ha): keine
2 | O=C(NC(OCCBr)C(Cl)(Cl)Cl)c1ccccc1O (centres unmarked) [B-1, reference compound] | 60 | 19,6% | 55,5% |  |  |  |  | Phytotoxizität ([1]; Menge des Wirkstoffs 20 kg/ha): keine
3 | CCCCNC(=O)n1c(NC(=O)OC)nc2ccccc21 [Benomyl handelsüblich, Methyl-1-(butylcarbamoyl)-2-benzimidazolcarbamat, reference compound] |  |  |  | 1 |  |  |  | 
4 | O=[N+]([O-])c1c(Cl)c(Cl)c(Cl)c(Cl)c1Cl [PCNB handelsüblich, Pentachloronitrobenzol, reference compound] |  |  |  |  |  |  |  | Erkrankungs-Index (Plasmodiophora brassicae; Menge des Wirkstoffs 60 kg/ha): 58,3%; Verhältnis der erkrankten Pflanzen (Plasmodiophora brassicae; Menge des Wirkstoffs 60 kg/ha): 75%; Phytotoxizität ([1]; Menge des Wirkstoffs 60 kg/ha): keine
5 | N#Cc1c(Cl)c(Cl)c(Cl)c(C#N)c1Cl [TPN handelsüblich, Tetrachloroisophthalsäurenitril, reference compound] |  |  |  |  |  |  |  | Bekämpfungs-Index (Rhizopus oryzae; [3]): 85%; Grad der Verletzung (Rhizopus oryzae; [3]): 7,3%; Verhältnis der gesunden Setzlinge (Rhizopus oryzae; [3]): 75,5%
6 | CCOC(NC(=O)c1cc(Cl)ccc1O)C(Cl)(Cl)Cl (centres unmarked) [Verbindung 1, N-(2,2,2-Trichloro-1-ethoxyethyl)-5-chloro-2-hydroxybenzamid] |  |  |  |  | 0% | 0 | keine | 
7 | C=CCOC(NC(=O)c1cc(Cl)ccc1O)C(Cl)(Cl)Cl (centres unmarked) [Verbindung 2, N-(2,2,2-Trichloro-1-allyloxyethyl)-5-chloro-2-hydroxybenzamid] | 95 | 2,7% | 90,5% |  | 0% | 0 | keine | 
8 | O=C(NC(OCC(F)(F)F)C(Cl)(Cl)Cl)c1cc(Cl)ccc1O (centres unmarked) [Verbindung 4, N-[2,2,2-Trichloro-1-(2,2,2-trifluoroethoxy)ethyl]-5-chloro-2-hydroxybenzamid] | 95 | 2,5% | 91,5% |  | 0% | 0 | keine | 
9 | O=C(NC(OCC(F)(F)F)C(Cl)(Cl)Cl)c1cc(Br)ccc1O (centres unmarked) [Verbindung 8] |  |  |  | 0,5 | 1,3% | 7 | keine | 
10 | CC(=O)Oc1ccc(Cl)cc1C(=O)NC(OCC(F)(F)F)C(Cl)(Cl)Cl (centres unmarked) [Verbindung 12] | 94 | 3,0% | 90,5% | 0 | 0% | 0 | keine | 
11 | COC(NC(=O)c1cc(Cl)ccc1O)C(Cl)(Cl)Cl (centres unmarked) [Verbindung 13] | 94 | 3,0% | 85,0% | 0,5 |  |  |  | 
12 | CCOC(NC(=O)c1cc(Cl)ccc1OC(C)=O)C(Cl)(Cl)Cl (centres unmarked) [Verbindung 20, N-(2,2,2-Trichloro-1-ethoxyethyl)-2-acetoxy-5-chlorobenzamid] |  |  |  | 0,3 |  |  |  | 
